According to US20200330400A1, “METHODS FOR THE TREATMENT OF CANCER USING COENZYME Q10 AND FATTY ACID METABOLISM INHIBITORS” (Berg LLC, priority 2016, published 2020):

Columns and labels:
[1] = test system: MDA-MB231 breast cancer cells; experiment: Cell viability of MDA-MB231 breast cancer cells exposed to Coenzyme Q10 alone or with fatty acid metabolism inhibitors; format: cell-based, human; conditions: for Sensitivity of cells to Coenzyme Q10 when treated in combination (shift of Coenzyme Q10 dose-response curve): MDA-MB231, co-treatment with named agent
Procedure: (§1) Cell viability was assessed in MDA-MB231 and SkBr-3 breast cancer cells exposed to Coenzyme Q10 alone or in combination with the fatty acid metabolism inhibitors C75, etomoxir, and trimetazidine, as well as a more pleiotropic fatty acid metabolism modulator, metformin. […] Metformin is used clinically as an anti-diabetic agent to suppress glucose production by the liver; however, the mechanism of action remains incompletely understood.
(§2) Coenzyme Q10 was applied to the cells in a 4% Coenzyme Q10 nanosuspension formulation (as described in WO 2011/112900, the entire contents of which are expressly incorporated herein by reference) comprising a phosphatidylcholine (e.g., dimyristoylphosphatidyl choline (DMPC)).

[2] = test system: MIA PaCa-2 pancreatic cancer cells; experiment: Cell viability of MIA PaCa-2 pancreatic cancer cells exposed to Coenzyme Q10 alone or with fatty acid metabolism inhibitors; format: cell-based; conditions: for Sensitivity of cells to Coenzyme Q10 when treated in combination (reduced viability): co-treatment with named agent
Description: Cell viability was next assessed in MIA PaCa-2 pancreatic cancer cells exposed to Coenzyme Q10 alone or in combination with the fatty acid metabolism inhibitors C75, etomoxir, trimetazidine, metformin, and the Stearoyl-CoA desaturase-1 (SCD-1) inhibitor A939572. […] SCD-1 is an endoplasmic reticulum enzyme that catalyzes the formation of the monounsaturated fatty acids oleic acid and palmitoleic acid from stearoyl-CoA and palmitoyl-CoA. Oleic acid and palmitoleic acid are major components of membrane phospholipids, cholesterol esters and alkyl-diacylglycerol. Thus SCD-1 is a key enzyme in fatty acid metabolism. Inhibition of SCD-1 results in depletion of mono-unsaturated fatty acids and reduction of lipid storage.

[3] = test system: SKBr-3 breast cancer cells; experiment: Cell viability of SKBr-3 breast cancer cells exposed to Coenzyme Q10 alone or with fatty acid metabolism inhibitors; format: cell-based; conditions: for Sensitivity of cells to Coenzyme Q10 when treated in combination (shift of Coenzyme Q10 dose-response curve): SkBr-3, co-treatment with named agent
Procedure: as §1, §2

[4] = test system: fatty acid metabolism genes FASN, CPT1, ACSL1 and DGAT1; experiment: mRNA expression of fatty acid metabolism genes in MDA-MB231 cells treated with Coenzyme Q10; format: cell-based, human; conditions: Coenzyme Q10 alone
Description: FASN catalyzes the synthesis of the fatty acid palmitate (C16:0, a long-chain saturated fatty acid) from acetyl-CoA and malonyl-CoA, in the presence of NADPH. CPT-1 is a mitochondrial enzyme responsible for the formation of acyl carnitines by catalyzing the transfer of the acyl group of a long-chain fatty acyl-CoA from coenzyme A to l-carnitine. CPT-1 mediated formation of acyl carnitine allows for subsequent movement of the acyl carnitine from the cytosol into the intermembrane space of mitochondria. ACSL1 activates the degradation of complex fatty acids. Specifically, this enzyme catalyzes the formation of fatty acyl-CoA by a two-step process proceeding through an adenylated intermediate. DGAT1 catalyzes the formation of triglycerides from diacylglycerol and Acyl-CoA. The reaction catalyzed by DGAT is considered the terminal and only committed step in triglyceride synthesis and to be essential for the formation of adipose tissue.

[5] = test system: MDA-MB231 breast cancer cells; experiment: Free glycerol, DAG and TAG content in MDA-MB231 cells treated with Coenzyme Q10; format: cell-based, human; conditions: Coenzyme Q10 treatment
Description: FIGS. 6B and 6C show diacylglyceride (DAG) (B), and triacylglyceride (TAG) content (C) in MDA-MB231 breast cancer cells treated with Coenzyme Q10.
To further evaluate the effect of Coenzyme Q10 on cancer cell lipid composition, structural lipidomic analysis was used to assess the metabolic fate of the lipid components of the Coenzyme Q10 formulation itself, such as DMPC. DMPC is a 14:0 lipid which is not found endogenously in human cells. Accordingly, it was possible to distinguish between DMPC-containing species based on the length of the fatty acid chains, e.g. 28:0 DAG and 42:0 TAG are not found endogenously. […] Accordingly, cancer cells treated with lipid-containing formulations may be especially sensitive to fatty acid metabolism inhibitors, due to the increased fatty acid metabolism activity resulting from storage and degradation of the lipid formulation components.

Compound	Sensitivity of cells to Coenzyme Q10 when treated in combination (shift of Coenzyme Q10 dose-response curve) [1]	Sensitivity of cells to Coenzyme Q10 when treated in combination (reduced viability) [2]	Sensitivity of cells to Coenzyme Q10 when treated in combination (shift of Coenzyme Q10 dose-response curve) [3]	further results
CCOC(=O)C1(CCCCCCOc2ccc(Cl)cc2)CO1 (stereo not shown) [Etomoxir, 2-(6-(4-chlorophenoxy)-hexyl)-oxirane-2-carboxylic acid ethyl ester]	more sensitive to Coenzyme Q10	more sensitive to Coenzyme Q10	more sensitive to Coenzyme Q10	
COc1ccc(CN2CCNCC2)c(OC)c1OC [Trimetazidine]	more sensitive to Coenzyme Q10	more sensitive to Coenzyme Q10	more sensitive to Coenzyme Q10	
CN(C)C(=N)N=C(N)N [Metformin]	did not alter cytotoxic responses to Coenzyme Q10	more sensitive to Coenzyme Q10	did not alter cytotoxic responses to Coenzyme Q10	Cell viability ([2]; Coenzyme Q10 and 0.5 mM metformin): lower viability than cells treated with Coenzyme Q10 alone; Cell viability ([2]; Coenzyme Q10 and 1 mM or 5 mM metformin): lower viability than cells treated with Coenzyme Q10 and 0.5 mM metformin
C=C1C(=O)OC(CCCCCCCC)C1C(=O)O (stereo not shown) [C75]	more sensitive to Coenzyme Q10	more sensitive to Coenzyme Q10	more sensitive to Coenzyme Q10	
COC1=C(OC)C(=O)C(C/C=C(\C)CC/C=C(\C)CC/C=C(\C)CC/C=C(\C)CC/C=C(\C)CC/C=C(\C)CC/C=C(\C)CC/C=C(\C)CC/C=C(\C)CCC=C(C)C)=C(C)C1=O [Coenzyme Q10]				EC50 ([1]; EC50 of Coenzyme Q10 (4% nanosuspension) alone or plus named inhibitor, inhibitor concentration not in table (FIGS. 1-4: C75 5 μM, Etomoxir 50 μM, Trimetazidine 375 μM, metformin 500 μM)): 165 µM; EC50 ([2]; Coenzyme Q10 alone (A939572 experiment, FIG. 10)): 142 µM; EC50 ([2]; Coenzyme Q10 alone (metformin experiment, FIG. 8)): 261 µM; EC50 ([2]; Coenzyme Q10 alone or with Etomoxir 100 μM, C75 10 μM or Trimetazidine 250 μM (FIG. 9)): 284 µM; mRNA expression of FASN, CPT-1, ACSL1 and DGAT1 [4]: dose- and time-dependent increase in mRNA expression; EC50 ([3]; EC50 of Coenzyme Q10 (4% nanosuspension) alone or plus named inhibitor, inhibitor concentration not in table): 599 µM; Diacylglyceride (DAG), triacylglyceride (TAG) and glycerol content [5]: accumulation of diacylglyceride (DAG), triacylglyceride (TAG) and the triglyceride backbone, glycerol
CNC(=O)c1cccc(NC(=O)N2CCC(Oc3ccccc3Cl)CC2)c1 [A939572]		more sensitive to Coenzyme Q10		
